Results taken from patent publication US6069232A, “Polyfluoroalkyl tryptophan tripeptide thrombin inhibitors” (Hoechst Marion Roussel, Inc., priority 1996, dated 2000).
pKi: −log10 of the molar value.

Legend:
[1] = molecular target: T1, Thrombin (Homo sapiens, UniProt P00734); experiment: Thrombin inhibition, spectrophotometric assay (p-nitroaniline liberation); type: biochemical; details: thrombin from human plasma; substrate Sarcosyl-Proline-Arginine-p-nitroanilide; 0.1M Tris pH 7.4; 30° C.
T1 construct: Thrombin is obtained from human plasma; purchased Sigma Chemical Co; host or cells: human plasma
Method: Chem., 329, p. 278 (1962), in which the liberation of p-nitroaniline is determined by measuring the increase in absorbance at 405 nm (ε=10800M^-1 cm^-1). Thrombin is obtained from human plasma, available from Sigma Chemical Co. wherein the activity is expressed in NIH units. One vial contains 290 units (specific activity=3000 units per mg of protein) as a lyophilized powder which is reconstituted with 1 mL of water. The substrate is the chromophoric peptide, Sarcosyl-Proline-Arginine-p-nitroanilide (Km =0.9 mM), the buffer is 0.1M Tris, pH 7.4 (final volume 1 mL) and the assay is carried out at a temperature of about 30° C. with 0.029 NIH units of enzyme required per assay. Kinetic characterization of immediate inhibitors is by means of the Dixon plot, whereas the characterization of slow- and/or tight-binding inhibitors uses data analysis techniques reviewed by Williams and Morrison. Kinetic characterization of time dependent inhibitors is by means of a Kitz & Wilson plot, Kitz R. and Wilson I. B., J. Biol. Chem., 237, 3245-3249 (1962).

[2] = molecular target: T2, Trypsin (Sus scrofa, UniProt P00761); experiment: Trypsin inhibition, spectrophotometric assay (p-nitroaniline liberation); type: biochemical; details: trypsin from porcine pancreas; substrate Benzoyl-Arginine-p-nitroanilide; 0.05M Tris, 0.05M CaCl2, pH 7.8; 30° C.
T2 construct: Trypsin is obtained from porcine pancreas; purchased Sigma Chemical Co; host or cells: porcine pancreas
Method: Chem., 329, p. 278 (1962), immediately described above. Trypsin is obtained from porcine pancreas, available from Sigma Chemical Co. wherein the activity is expressed in Sigma units. The specific activity of the trypsin source is 15900 Sigma units per mg of protein where one unit is defined as the amount of enzyme that gives an increase in absorbance at 253 nm of 0.001 per min as the result of the hydrolysis of Benzoyl-Arginine-Ethylester, at pH 7.6 and 25° C. The substrate is the peptide Benzoyl-Arginine-p-nitroanilide (KM =[…]), the buffer is 0.05M Tris, 0.05M CaCl2, pH 7.8 (final volume 1 mL) and the assay is carried out at a temperature of 30° C. with 8 Sigma units of enzyme required per assay. Kinetic characterization of immediate inhibitors is by means of the Dixon plot, whereas the characterization of slow- and/or tight-binding inhibitors uses data analysis techniques reviewed by Williams and Morrison. Kinetic characterization of time dependent inhibitors is by means of a Kitz & Wilson plot.

[3] = tested on: clotting time (aPTT); experiment: Coagulation assay: activated partial thromboplastin time (aPTT), concentration doubling the clotting time; set-up: species or system rat; details: calculated by simple linear regression
Method: Male Sprague-Dawley rats (200-450 gm) purchased from Harlan Sprague Dawley, Inc., (Indianapolis, Ind. 46229) were used in these studies.
Activated partial thromboplastin time (aPTT) determinations are carried out using the reagents and methods of Dade Diagnostics, Inc. (Aguada, Puerto Rico 00602). All clotting times were measured semiautomatically using a MLA-Electra 750, MLA, Inc. (Pleasantville, N.Y. 10570). The concentration required for doubling the clotting time (ID2) was calculated using simple linear regression.

[4] = tested on: aPTT in rat plasma; experiment: In vivo measurement of aPTT in rat plasma after injection; details: n = 2
Source text: Activated partial thromboplastin time (aPTT) measurements were made in rat plasma at various times after injecting the animals with TFA·HNMe-D-Phe-L-Pro-D,L-Trp--CF2 CF3. Male Sprague-Dawley rats (200-450 g) purchased from Harlan Sprague Dawley, Inc., (Indianapolis, Ind. 46229) are used in these studies. […]

T2 sequence (P00761 9-231): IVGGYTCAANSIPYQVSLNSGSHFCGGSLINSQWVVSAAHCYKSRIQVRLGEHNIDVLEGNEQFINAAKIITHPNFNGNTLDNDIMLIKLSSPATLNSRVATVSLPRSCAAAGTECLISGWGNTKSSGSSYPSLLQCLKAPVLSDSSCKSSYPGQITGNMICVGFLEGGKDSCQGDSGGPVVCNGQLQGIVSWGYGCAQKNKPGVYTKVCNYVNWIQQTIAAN

- pKi [1]: 6.35
- pKi [2]: ~4.00
SMILES: CN[C@H](Cc1ccccc1)C(=O)N1CCC[C@H]1C(=O)NC(Cc1c[nH]c2ccccc12)C(=O)C(F)(F)C(F)(F)F.O=C(O)C(F)(F)F (stereo partly drawn) [TFA.HNMe-D-Phe-L-Pro-D,L-Trp-CF2 CF3, L-Prolinamide, N-methyl-D-phenylalanyl-N-[3,3,4,4,4-pentafluoro-1-(1H-indol-3-ylmethyl)-2-oxobutyl]-, mono(trifluoroacetate)]
- ID2 (concentration required for doubling the clotting time) [3]: 44.9 µM
- aPTT ([4]; 5 mg/kg i.v., 0 min. after dosing): 21.2 s
- aPTT ([4]; 5 mg/kg i.v., 5 min. after dosing): 19.0 s
- aPTT ([4]; 5 mg/kg i.v., 15 min. after dosing): 22.7 s
- aPTT ([4]; 5 mg/kg i.v., 30 min. after dosing): 18.6 s
- aPTT ([4]; 5 mg/kg i.v., 60 min. after dosing): 17.6 s
- aPTT ([4]; 10 mg/kg i.v., 0 min. after dosing): 18.8 s
- aPTT ([4]; 10 mg/kg i.v., 5 min. after dosing): 17.4 s
- aPTT ([4]; 10 mg/kg i.v., 15 min. after dosing): 18.0 s
- aPTT ([4]; 10 mg/kg i.v., 30 min. after dosing): 15.7 s
- aPTT ([4]; 10 mg/kg i.v., 60 min. after dosing): 12.6 s
- aPTT ([4]; 30 mg/kg i.p., 0 min. after dosing): 19.2 s
- aPTT ([4]; 30 mg/kg i.p., 5 min. after dosing): 20.8 s
- aPTT ([4]; 30 mg/kg i.p., 15 min. after dosing): 19.2 s
- aPTT ([4]; 30 mg/kg i.p., 30 min. after dosing): 19.4 s
- aPTT ([4]; 30 mg/kg i.p., 60 min. after dosing): 18.7 s
